Measured values published in US5593970A, “Heterocyclic anthracycline analogs” (priority 1994, dated 1997).
“And” between values parts separate entries of the source, which are not always exact repeats. Identical values can stand only once. Counter-ions that a name gives are not always drawn. Like-named read-outs stand apart in the source and are kept apart here.

Assays:
[1] = tested on: Ovarian; test: NCI assay, average per cancer type; conditions: Homo sapiens, read-out: Average LOG10 GI50
[2] = tested on: Renal; test: NCI assay, average per cancer type
[3] = tested on: solid tumors; test: NCI assay, mean potency in solid tumors
[4] = tested on: SC Lung; test: NCI assay, average per cancer type
[5] = tested on: Melanoma; test: NCI assay, average per cancer type
[6] = tested on: CNS; test: NCI assay, average per cancer type; conditions: Homo sapiens, read-out: Average LOG10 GI50
[7] = tested on: T47D; test: Microculture tetrazolium assay; format: cell-based
[8] = tested on: SKVLB; test: Microculture tetrazolium assay; format: cell-based; conditions: for VLB/OV3: IC50 ratio SKVLB/SKOV3; for IC50: SKVLB
[9] = tested on: NSC Lung; test: NCI assay, average per cancer type
[10] = tested on: LOX; test: Microculture tetrazolium assay; format: cell-based; conditions: read-out: IC50
[11] = tested on: Colon; test: NCI assay, average per cancer type
[12] = tested on: Leukemia; test: NCI assay, average per cancer type
[13] = tested on: MATB/ADR; test: Soft agar colony formation disk diffusion assay; format: cell-based, rat
Text: (§1) A more elaborate version of this fundamental assay, the soft agar colony formation disk diffusion assay was used. This assay defines the relative activity of one particular drug versus a tumoral cell line type. The effect of the test drug against tumoral cells could be measured by its inhibitory capacity against colony formation after the delivery of the compound, in different concentrations on an filter disk(4). A modified technique of this assay was used in order to investigate the antiproliferative activity of candidate compounds. Tumoral cells from solid tumors and ascitic lines were plated separately in a two layer agar matrix. Cell lines to be tested were suspended in an upper layer of 0.4% Noble agar (Difco#00142-01) in RPMI-1066 (Gibco#3201875) at a yield varying between 10^4 to 2×10^5 cells per 60 mm Petri dish. Plating efficiency was determined for each line in order to achieve an optimal number of colonies per dish. Plates were examined before drug administration to confirm a uniform dispersion of single cells. The bottom layer consisted of 0.8% Noble agar, 0.8% Tryptic Soy Broth (difco#0037001)in CMRL-1066/Fischer's. The bottom layers were used within 2 and 9 days of preparation. Plated dishes (bottom layer of agar, upper layer of cells and administered drug were incubated in humidified atmosphere at 37° C., 5% CO2 for 10-20 days depending upon the time necessary to observe adequate colonies (defined as a cell aggregate of more than 50 cells) both control and drug inhibited. Drugs were administered on a paper filter disk (Whatman No. 1) of 6.5 mm diameter placed on the upper layer at 1/3 distance from the edge of the dish. The anti-clonogenic activity of the compounds was measured as the zone of inhibition from the disk edge to the most proximal colonies. This zone of inhibition was checked on an inverted microscope (40×) and was measured with a micrometer mounted in the eyepiece. The ocular micrometer was calibrated with a stage micrometer set for a particular combination of ocular and objective lenses. […] We made a modification of the initial technique by not plating a solid tumor and a leukemia simultaneously in the same Petri dish. Anti-clonogenic tests performed on leukemia cell line have helped in the discovery of the majority of current clinically used cytostatic drugs. Our tests on solid tumor lines (animal or human) may help define active compounds with solid tumor specificity. […] Murine tumors were maintained IN VIVO in order to diminish the selection of subpopulations of cells normally present in the heterogenous IN VIVO tumor. The actual drug sensitivity assay was done IN VITRO. For these experiments cells from freshly excised tumors or from ascitic fluids were maintained in RPMI-1066. Both compounds were dissolved in DMSO (1 mg/100 ul) and brought to final volume (250 ul) with Millipore deionized sterile water. Further dilutions were made with […] volume of 25 ul of freshly prepared solution was placed on the filter disk and allowed to dry.

[14] = tested on: MATB.WT; test: Soft agar colony formation disk diffusion assay; format: cell-based, rat; conditions: 100 μg/DISK
Text: as §1

[15] = tested on: MCF7; test: Soft agar colony formation disk diffusion assay; format: cell-based, human; conditions: 100 μg/DISK
Text: (§2) A more elaborate version of this fundamental assay, the soft agar colony formation disk diffusion assay was used. This assay defines the relative activity of one particular drug versus a tumoral cell line type. The effect of the test drug against tumoral cells could be measured by its inhibitory capacity against colony formation after the delivery of the compound, in different concentrations on an filter disk(4). A modified technique of this assay was used in order to investigate the antiproliferative activity of candidate compounds. Tumoral cells from solid tumors and ascitic lines were plated separately in a two layer agar matrix. Cell lines to be tested were suspended in an upper layer of 0.4% Noble agar (Difco#00142-01) in RPMI-1066 (Gibco#3201875) at a yield varying between 10^4 to 2×10^5 cells per 60 mm Petri dish. Plating efficiency was determined for each line in order to achieve an optimal number of colonies per dish. Plates were examined before drug administration to confirm a uniform dispersion of single cells. The bottom layer consisted of 0.8% Noble agar, 0.8% Tryptic Soy Broth (difco#0037001)in CMRL-1066/Fischer's. The bottom layers were used within 2 and 9 days of preparation. Plated dishes (bottom layer of agar, upper layer of cells and administered drug were incubated in humidified atmosphere at 37° C., 5% CO2 for 10-20 days depending upon the time necessary to observe adequate colonies (defined as a cell aggregate of more than 50 cells) both control and drug inhibited. Drugs were administered on a paper filter disk (Whatman No. 1) of 6.5 mm diameter placed on the upper layer at 1/3 distance from the edge of the dish. The anti-clonogenic activity of the compounds was measured as the zone of inhibition from the disk edge to the most proximal colonies. This zone of inhibition was checked on an inverted microscope (40×) and was measured with a micrometer mounted in the eyepiece. The ocular micrometer was calibrated with a stage micrometer set for a particular combination of ocular and objective lenses. […] We made a modification of the initial technique by not plating a solid tumor and a leukemia simultaneously in the same Petri dish. Anti-clonogenic tests performed on leukemia cell line have helped in the discovery of the majority of current clinically used cytostatic drugs. Our tests on solid tumor lines (animal or human) may help define active compounds with solid tumor specificity. […] HUMAN TUMORS. […] LS180 (13) and BE1(14) were obtained from the Oncology Dept. of the Montreal General Hospital. […] Cell lines were routinely passaged twice a week by trypsinization and maintained in 25, or 75-sq. cm Falcon Plastic flasks at 37° C., 5% CO2 in humidified atmosphere. Both compounds were dissolved in DMSO (1 mg/100 ul) and brought to final volume (250 ul) with Millipore deionized sterile water. Further dilutions were made with […] volume of 25 ul of freshly prepared solution was placed on the filter disk and allowed to dry.

[16] = tested on: MCF7/ADR; test: Soft agar colony formation disk diffusion assay; format: cell-based, human; conditions: 100 μg/DISK
Text: as §2

[17] = tested on: SKOV3; test: Microculture tetrazolium assay; format: cell-based; conditions: Homo sapiens, SK-OV-3, SKOV3; read-out: IC50
[18] = tested on: HT29; test: Microculture tetrazolium assay; format: cell-based; conditions: Homo sapiens, HT-29, HT29; read-out: IC50
[19] = Homo sapiens, 48 h, read-out: Average LOG10 LC50
[20] = Homo sapiens, read-out: Average LOG10 GI50

## COc1cccc2c1C(=O)c1c(O)c3c(c(O)c1C2=O)C[C@@](O)(C(=O)CO)C[C@@H]3O[C@H]1C[C@H](N)[C@H](O)[C@H](C)O1 [ADR, reference compound]
[1]
  GI50: 282 nM
[2]; [19]
  CC50: 13500 nM
[2]; [20]
  GI50: 182 nM
[2]; Renal, 2880 min
  Average LOG10 LC50: -4.87 ± 0.38 log molar
[3]; Homo sapiens, read-out: Average LOG10 GI50, Mean Potency in solid tumors
  GI50: 117 nM
[3]; solid tumors, 2880 min
  Average LOG10 LC50, Mean Potency in solid tumors: -5.07 ± 0.28 log molar
[4]; [20]
  GI50: 53.7 nM
[4]; SC Lung, 2880 min
  Average LOG10 LC50: -5.39 ± 0.18 log molar
[5]; [19]
  CC50: 2750 nM
[5]; [20]
  GI50: 120 nM
[5]; Melanoma, 2880 min
  Average LOG10 LC50: -5.56 ± 0.29 log molar
[6]
  GI50: 85.1 nM
[7]; Homo sapiens
  IC50: 76.3 nM
[7]; listed as Adriamycin
  IC50: 72 nM
[8]; listed as Adriamycin
  VLB/OV3: 82.63 and 121.5
[8]
  IC50: 4720 nM
[9]; [19]
  CC50: 9770 nM
[9]; [20]
  GI50: 46.8 nM
[9]; NSC Lung, 2880 min
  Average LOG10 LC50: -5.01 ± 0.26 log molar
[10]
  IC50: 43.7 nM
[11]; Colon, 2880 min
  Average LOG10 LC50: -4.86 ± 0.27 log molar
[11]; [19]
  CC50: 13800 nM
[11]; [20]
  GI50: 245 nM
[12]; 48 h, read-out: Average LOG10 LC50
  CC50: 17400 nM
[12]; Leukemia, 2880 min
  Average LOG10 LC50: -4.76 ± 0.10 log molar
[12]; read-out: Average LOG10 GI50
  GI50: 30.9 nM

## CCOC(=O)C1Cc2c(OCC)c3c(c(O)c2C(O[C@H]2C[C@H](NC(=O)C(F)(F)F)[C@H](O)[C@H](C)O2)O1)C(=O)c1ccccc1C3=O (stereo partly shown) [BCH-705]
[13]
  cross resistance with adriamycin, MATB/ADR vs MATB.WT: no cross resistance with adriamycin
[13]; 100 μg/DISK
  zone of inhibition: 155.5 ± 4.3 Zone Units
[14]
  zone of inhibition: 259.2 ± 21.5 Zone Units
[15]
  zone of inhibition: 79.3 ± 8.6 Zone Units
[16]
  zone of inhibition: 35.5 ± 7.3 Zone Units
[17]
  IC50: 12900 nM
[8]
  VLB/OV3: 1.09
[8]; read-out: IC50
  IC50: 14100 nM

## CCCCCC1Cc2c(O)c3c(c(O)c2C(O[C@H]2C[C@H](N)[C@H](O)[C@H](C)O2)O1)C(=O)c1ccccc1C3=O (stereo partly drawn) [BCH-2089, (1'S,1R,3R)-5,12-Dihydroxy-3-pentyl-1-(2',3',6'-trideoxy-3'-amino-L-lyxohexopyranose)-1,2,3,4-tetrahydro-(2-oxygen)-naphtacene-6,11-dione-hydrochloride]
[18]
  IC50: 194 nM
[17]
  IC50: 332 nM
[7]; Homo sapiens, read-out: IC50
  IC50: 201 nM
[8]
  VLB/OV3: 1.27
[8]; read-out: IC50
  IC50: 420 nM
[10]
  IC50: 104 nM

## CC(=O)[C@@H]1CC2=C(C(=O)c3cc4ccccc4c(O)c3C2=O)[C@@H](O[C@H]2C[C@H](NC(=O)C(F)(F)F)[C@H](OS(C)(=O)=O)[C@H](C)O2)O1 [BCH-2093, (1S,1R,3S)-Methyl-(6-hydroxy-1-(2',3',4',6'-tetradeoxy-3'-trifluoroacetamido-4'-O-methanesulfonyl-L-lyxohexopyranose)-5,12-dioxo-3,4,5,12-tetrahydroanthraceno[2,3-c]pyran-3-yl)ketone]
[18]
  IC50: 2800 nM
[17]
  IC50: 10300 nM
[7]; Homo sapiens, read-out: IC50
  IC50: 15900 nM
[8]
  VLB/OV3: 3.82
[8]; read-out: IC50
  IC50: 39300 nM
[10]
  IC50: 4360 nM
